US6887896B1, “7-[(7-Alkoxy)-chrom-3-en-6-yl]-heptatrienoic acid and 7-[(3-alkoxy)-5,6-dihydronaphthalen-2-yl]-heptatrienoic acid derivatives having serum glucose reducing activity” (Allergan, Inc., priority 2003, dated 2005)
pEC50, pKi: −log10 of the molar value.

Tests used:
RXRβ [1] = biological target: T1, RXRβ (UniProt P28704); assay: holoreceptor transactivation assay, RXRβ; type: cell-based; details: for pEC50: holoreceptor transactivation, read-out: RXR Trans. EC50 β; for RXR Trans. efficacy (number in parentheses) β: percentage compared to the standard compound
T1 sequence (P28704 1-520): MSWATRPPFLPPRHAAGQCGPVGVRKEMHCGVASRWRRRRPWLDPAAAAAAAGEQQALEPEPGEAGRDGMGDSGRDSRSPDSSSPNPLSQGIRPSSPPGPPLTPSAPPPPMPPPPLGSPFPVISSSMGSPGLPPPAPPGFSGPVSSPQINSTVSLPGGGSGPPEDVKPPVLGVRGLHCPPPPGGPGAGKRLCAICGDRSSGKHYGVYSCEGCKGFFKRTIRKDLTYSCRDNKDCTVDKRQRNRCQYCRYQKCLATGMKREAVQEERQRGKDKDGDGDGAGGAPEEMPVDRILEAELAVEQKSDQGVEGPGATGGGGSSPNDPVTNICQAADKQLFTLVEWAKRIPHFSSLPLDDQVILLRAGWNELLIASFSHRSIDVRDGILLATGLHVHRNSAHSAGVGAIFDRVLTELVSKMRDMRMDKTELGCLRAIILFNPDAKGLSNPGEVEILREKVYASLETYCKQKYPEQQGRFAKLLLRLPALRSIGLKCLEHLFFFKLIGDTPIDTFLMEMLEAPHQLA
Text: (§1) Specifically, one such assay is a chimeric receptor transactivation assay which tests for agonist-like activity in the R RAPE and RAR7 receptor subtypes, and which is based on work published by Feigner, P. L. and Holm, M (1989) Focus, 112 is described in detail in U.S. Pat. No. 5,455,265. The specification of U.S. Pat. No. 5,455,265 is hereby expressly incorporated by reference. A holoreceptor transactivation assay and a ligand binding assay which measure the antagonist/agonist like activity of the compounds of the invention, or their ability to bind to the several retinoid receptor subtypes, respectively, are described in published PCT Application No. WO WO93/11755 (particularly on pages 30-33 and 37-41) published on Jun. 24, 1993, the specification of which is also incorporated herein by reference. A detailed experimental procedure for holoreceptor transactivations has been described by Heyman et al. Cell 68, 397-406, (1992); Allegretto et al. J. Biol. Chem. 268, 26625-26633, and Mangelsdorf et al. The Retinoids: Biology, Chemistry and Medicine, pp 319-349, Raven Press Ltd., New York, which are expressly incorporated herein by reference. The results obtained in this assay are expressed in EC50 numbers, as they are also in the chimeric receptor transactivation assay. The results of the ligand binding assay are expressed in Ki numbers. (See Cheng et al. Biochemical Pharmacology Vol. 22 pp 3099-3108, expressly incorporated herein by reference.)
(§2) Efficacy in a transactivation assay is expressed as a percentage of the maximum potency attained by the compound compared to a standard which, in this case, is the compound named (2E,4E,1′S,2′S)-3-methyl-5-[2′-methyl-2′-(5,5,8,8-tetramethyl-5,6,7,8-tetrahydro-naphthalen-2-yl)-cyclopropyl]-penta-2,4-dienoic acid. This standard compound is described in U.S. Pat. No. 6,114,533.
(§3) The specification of this application for patent is organized in several sections in accordance with structural Formulas A through F each of which discloses a group of preferred compounds within the scope of the invention. Tables that disclose the activity of certain exemplary compounds of the invention in the above-described RXR receptor transactivation and binding assays are found in the corresponding sections. […] The transactivation data pertaining to the activation of RXR receptors were obtained in the holoreceptor assay.
(§4) Generally speaking, in the tables disclosing the results of transactivation and binding assays the numbers in parentheses indicate efficacy as a percentage compared to the standard compound, (2E,4E,1′S,2′S)-3-methyl-5-[2′-methyl-2′-(5,5,8,8-tetramethyl-5,6,7,8-tetrahydro-naphthalen-2-yl)cyclopropyl]-penta-2,4-dienoic acid and the other numbers indicate the measured EC50 and K; in nanomolar concentration.

RXRγ = biological target: T2, RXRγ (UniProt P28705); assay: holoreceptor transactivation assay, RXRγ; type: cell-based; details: for pEC50: holoreceptor transactivation, read-out: RXR Trans. EC50 γ; for RXR Trans. efficacy (number in parentheses) γ: percentage compared to the standard compound
T2 sequence (P28705 1-463): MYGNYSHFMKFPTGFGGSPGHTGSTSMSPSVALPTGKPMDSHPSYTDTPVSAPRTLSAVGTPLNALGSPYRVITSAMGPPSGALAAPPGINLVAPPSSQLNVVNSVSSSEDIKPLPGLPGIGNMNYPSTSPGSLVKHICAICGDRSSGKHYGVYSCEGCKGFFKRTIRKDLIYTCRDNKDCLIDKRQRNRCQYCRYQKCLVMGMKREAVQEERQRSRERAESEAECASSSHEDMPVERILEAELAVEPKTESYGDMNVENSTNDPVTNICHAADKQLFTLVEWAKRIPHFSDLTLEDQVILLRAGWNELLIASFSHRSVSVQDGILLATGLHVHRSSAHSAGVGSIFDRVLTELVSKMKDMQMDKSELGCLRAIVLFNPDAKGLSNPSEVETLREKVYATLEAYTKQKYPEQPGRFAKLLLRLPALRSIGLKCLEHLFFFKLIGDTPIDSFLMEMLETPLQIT
Text: as §1, §2, §3, §4

RXRα = biological target: T3, RXRα (Homo sapiens, UniProt P19793); assay: ligand binding assay, RXRα; details: read-out: RXR Bind Ki α
T3 construct: expressed in transfected cells
T3 sequence (P19793 1-462): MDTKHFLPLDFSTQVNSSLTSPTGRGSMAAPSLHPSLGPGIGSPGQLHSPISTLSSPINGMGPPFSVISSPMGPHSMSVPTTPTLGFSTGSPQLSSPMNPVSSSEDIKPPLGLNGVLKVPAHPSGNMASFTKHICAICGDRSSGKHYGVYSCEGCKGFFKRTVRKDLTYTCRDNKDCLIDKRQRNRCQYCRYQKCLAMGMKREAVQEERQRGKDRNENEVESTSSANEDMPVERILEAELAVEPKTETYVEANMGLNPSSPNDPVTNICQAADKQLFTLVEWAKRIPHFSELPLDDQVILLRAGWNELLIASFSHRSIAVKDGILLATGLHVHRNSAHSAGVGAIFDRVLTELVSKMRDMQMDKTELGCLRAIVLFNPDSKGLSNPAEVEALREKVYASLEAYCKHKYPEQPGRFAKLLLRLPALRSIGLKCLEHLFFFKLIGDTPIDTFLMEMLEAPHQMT
Text: as §1, §4

RXRβ [2] = biological target: T1, RXRβ; assay: ligand binding assay, RXRβ; details: read-out: RXR Bind Ki β
Text: as §1, §4

| Structure (SMILES) | pEC50 (RXRβ [1]) | pEC50 (RXRγ) | pKi (RXRα) | pKi (RXRβ [2]) | RXR Trans. efficacy (number in parentheses) β (RXRβ [1]) [%] | RXR Trans. efficacy (number in parentheses) γ (RXRγ) [%] |
| --- | --- | --- | --- | --- | --- | --- |
| CCC1=CC(C)(C)Oc2cc(OC)c(\C(C)=C(F)/C=C/C(C)=C/C(=O)O)cc21 [Compound 120, 7-(4Ethyl-7-methoxy-2,2-dimethyl-2H-chromen-6-yl)-6-fluoro-3-methyl-octa-2E,4E,6E-trienoic acid] | < 5.00 | < 5.00 | 6.56 | 5.59 |  |  |
| COc1cc2c(cc1\C(C)=C(F)/C=C/C(C)=C/C(=O)O)C(C(C)C)=CC(C)(C)O2 [Compound 121, (2E,4E,6E)-6-Fluoro-7-(4-isopropyl-7-methoxy-2,2-dimethyl-2H-chromen-6-yl)-3-methyl-octa-2,4,6-trienoic acid] | 7.29 | 8.00 | 8.15 | 7.48 | 72 | 79 |
| CC/C(=C(F)/C=C/C(C)=C/C(=O)O)c1cc2c(cc1OC)OC(C)(C)C=C2C [Compound 129, 6-Fluoro-7-(7-methoxy-2,2,4-trimethyl-2H-chromen-6-yl)-3-methyl-nona-2E,4E,6E-trienoic acid] | 6.07 | 7.28 | 7.16 | 6.20 | 151 | 108 |
| CC/C(=C(F)/C=C/C(C)=C/C(=O)O)c1cc2c(cc1OC)OC(C)(C)C=C2C(C)(C)C [Compound 131, 7-(4-tert-Butyl-7-methoxy-2,2-dimethyl-2H-chromen-6-yl)-6-fluoro-3-methyl-nona-2E,4E,6E-trienoic acid] | 7.19 | 8.10 | 8.00 | 7.03 | 47 | 53 |
| CCOc1cc2c(cc1\C(CC)=C(F)/C=C/C(C)=C/C(=O)O)C(C)=CC(C)(C)O2 [Compound 132, 7-(7-Ethoxy-2,2,4-trimethyl-2H-chromen-6-yl)-6-fluoro-3-methyl-nona-2E,4E,6E-trienoic acid] | < 5.00 | < 6.00 | 6.91 | 5.96 |  |  |
| CCOc1c(\C(C)=C(F)/C=C/C(C)=C/C(=O)O)cc2c(c1Cl)OC(C)(C)C=C2C(C)C [Compound 172, 7-(8-Chloro-4-isopropyl-7-ethoxy-2,2-dimethyl-2H-chromen-6-yl)-6-fluoro-3-methyl-octa-2E,4E,6E-trienoic acid] | 7.28 | 8.00 | 8.00 | 7.07 | 45 | 46 |
| CC(/C=C/C(F)=C(/C)c1cc2c(c(Cl)c1OC(C)C)OC(C)(C)C=C2C(C)C)=C\C(=O)O [Compound 174] | 6.28 | 6.94 | 7.54 | 6.50 | 12 | 6 |
| CCOc1cc2c(cc1\C(=C/C=C/C(C)=C/C(=O)O)CC)C(C)=CCC2(C)C [Compound A-16, 7-(3-Ethoxy-5,5,8-trimethyl-5,6-dihydronaphthalen-2-yl)-3-methyl-nona-2E,4E,6Z-trienoic acid] | 6.72 | 7.49 | 8.06 | 7.31 | 37 | 26 |

The next molecules have a higher pEC50 (RXRβ [1]) than those just listed; values first:

| pEC50 (RXRβ [1]) | pEC50 (RXRγ) | pKi (RXRα) | pKi (RXRβ [2]) | RXR Trans. efficacy (number in parentheses) β (RXRβ [1]) [%] | RXR Trans. efficacy (number in parentheses) γ (RXRγ) [%] | Structure (SMILES) |
| --- | --- | --- | --- | --- | --- | --- |
| 7.46 | 8.05 | 7.96 | 6.96 | 61 | 52 | COc1cc2c(cc1\C(C)=C(F)/C=C/C(C)=C/C(=O)O)C(C(C)(C)C)=CC(C)(C)O2 [Compound 122, 7-(4-tert-Butyl-7-methoxy-2,2-dimethyl-2H-chromen-6-yl)-6-fluoro-3-methyl-octa-2E,4E,6E-trienoic acid] |
| 7.74 | 8.22 | 8.70 | 7.44 | 21 | 10 | CCOc1c(\C(CC)=C(F)/C=C/C(C)=C/C(=O)O)cc2c(c1Cl)OC(C)(C)C=C2C(C)C [Compound 173] |
| 8.49 | 9.05 | 8.62 | 7.80 | 72 | 73 | CCOc1cc2c(cc1\C(C)=C/C=C/C(C)=C/C(=O)O)C(C(C)(C)C)=CCC2(C)C [Compound A-17, 7-(8-tert-Butyl-3-ethyloxy-5,5-dimethyl-5,6-dihydronaphthalen-2-yl)-3-methyl-octa-2E,4E,6Z-trienoic acid] |
| 8.51 | 9.22 | 8.52 | 7.62 | 73 | 86 | CC/C(=C(F)/C=C/C(C)=C/C(=O)O)c1cc2c(cc1OC)OC(C)(C)C=C2C(C)C [Compound 130, 6-Fluoro-7-(4-isopropyl-7-methoxy-2,2-dimethyl-2H-chromen-6-yl)-3-methyl-nona-2E,4E,6E-trienoic acid] |
| 9.10 | 9.70 | 8.70 | 8.15 | 88 | 109 | COc1c(\C(C)=C(F)/C=C/C(C)=C/C(=O)O)cc2c(c1Cl)OC(C)(C)C=C2C(C)C [Compound 170, 7-(8-Chloro-4-isopropyl-7-methoxy-2,2-dimethyl-2H-chromen-6-yl)-6-fluoro-3-methyl-octa-2E,4E,6E-trienoic acid] |
| 9.70 | 10.40 | 8.89 | 7.92 | 85 | 95 | CC/C(=C(F)/C=C/C(C)=C/C(=O)O)c1cc2c(c(Cl)c1OC)OC(C)(C)C=C2C(C)C [Compound 171, 7-(8-Chloro-4-isopropyl-7-methoxy-2,2-dimethyl-2H-chromen-6-yl)-6-fluoro-3-methyl-nona-2E,4E,6E-trienoic acid] |
